These results are taken from US8765754B2, “Pyrrolotriazine compounds” (Locus Pharmaceuticals, Inc., priority 2009, dated 2014).

Molecules are shown by their SMILES.

One data set addresses T1, Btk (Homo sapiens, UniProt Q06187).
T1 construct: purchased Invitrogen
The data set can be described thus: Btk in vitro radioassay (33P-ATP, Poly(Glu,Tyr)). Conditions: Btk inhibition; reported after Biological Example 2; read-out: IC50 over Btk. In kind it is biochemical. Here is the method:
The diluted solution (1 μl) of the compound of the present invention in DMSO was added to 96-well assay plates. Additionally, Btk kinase solution (39 μL) composed of Btk (1.3 nM, Invitrogen), Tris (12.5 mM; pH7.5), Triton X-100 (0.01%), glycerol (5%), MgCl2 (10 mM), EGTA (1 mM), glycerol 2-phosphate (5 mM), DTT (2 mM) and sodium orthovanadate (0.5 mM) was added to 96-well assay plate. The solution was pre-incubated for 20 minutes at 30° C. Then ATP/peptide solution (10 μL) composed of Poly (Glu, Tyr) (0.20 mg/mL, Sigma) and ^33P-ATP (47 μM, PerkinElmer) was added. After incubating at 30° C. for 12 minutes, the reaction was stopped by adding 10 μL of 0.6M phosphoric acid to each well. The each reaction from the 96-well assay plate was transferred to 96-well filter plate. The reaction mixture was analyzed on the radioactive survey equipment (TopCount NXT HTS; PerkinElmer) to read count efficiency.
The inhibition rate (%) of the compound of the present invention was calculated with the following formula: Inhibition rate(%)={1−(counts−B100)/(B0−B100)}×100 B0: average counts for 0% inhibition control (i.e., no compound) B100: average counts for 100% inhibition control (i.e., no enzyme)
The value of 50% inhibition rate (IC50) for the compounds of the present invention was determined from inhibition curve based on inhibition rate at each concentration of the compound of the present invention.

The next data set deals with Lck (Homo sapiens, UniProt P06239). Briefly: Z'-lyte kinase assay (FRET), inhibitory activity to other kinases: Lck. The data set is classed as biochemical. The settings on record: selectivity ratio, Biological Example 1 and 2. As to the method:
(§1) Btk tyrosine phosphorylation reaction was carried out using Z′-lyte kinase assay kit—Tyr 1 peptide (Invitrogen) consisting of the following reagent (Tyr 1 peptide, Thy 1 phospho-peptide, 5× kinase buffer, ATP, development regent B, development buffer, and stop reagent) and Btk. Btk activity was determined using fluorescence resonance energy transfer (FRET) method.
The diluted solution (5 μl) of the compound of the present invention in dimethyl sulfoxide (DMSO; Sigma) was added to 96-well assay plates. Additionally, the peptide/kinase solution (10 μl) composed of DL-Dithiothreitol (DTT; 2 mM), Tyr 1 peptide (2 μM), kinase buffer and Btk (5 nM, Invitrogen) was added to the assay plates and the reaction solution was pre-incubated for 20 minutes at 25° C. […] The fluorescence emission of each well was measured on a fluorescence plate reader at a wavelength of 445 nm and 520 nm. The phospholyration ratio was determined by the emission rate of the fluorescence at 445 nm to 520 nm according to manufacturer's instruction.
The inhibition rate (%) of the compounds of the present invention was calculated with the following formula: Inhibition rate(%)=1−{(AX−AB)/(AC−AB)}×100 AX: phospholyration ratio at addition of the compound of the present invention AB: phospholyration ratio at blank AC: phospholyration ratio at only addition of DMSO […]

The target of another data set is Fyn (Homo sapiens, UniProt P06241). Briefly: Z'-lyte kinase assay (FRET), inhibitory activity to other kinases: Fyn. The settings on record: selectivity ratio, Biological Example 1 and 2. In kind it is biochemical. As to the method:
as §1
(§2) The diluted solution (5 μl) of the compound of the present invention in dimethyl sulfoxide (DMSO; Sigma) was added to 96-well assay plates. Additionally, the peptide/kinase solution (10 μl) composed of DL-Dithiothreitol (DTT; 2 mM), Tyr 1 peptide (2 μM), kinase buffer and Btk (5 nM, Invitrogen) was added to the assay plates and the reaction solution was pre-incubated for 20 minutes at 25° C. Then, the ATP solution (5 μl) composed of adenosine triphosphate (ATP; 36 μM) and kinase buffer was added and the reaction solution was incubated for 1 hour at 25° C. After the incubation, the development solution B (10 μl) composed of development reagent B and development buffer was added and the reaction solution was incubated for 1 hour at 25° C. The stop solution (10 μl) was added to each well to arrest the enzyme reaction. The fluorescence emission of each well was measured on a fluorescence plate reader at a wavelength of 445 nm and 520 nm. The phospholyration ratio was determined by the emission rate of the fluorescence at 445 nm to 520 nm according to manufacturer's instruction.
(§3) The inhibition rate (%) of the compounds of the present invention was calculated with the following formula: Inhibition rate(%)=1−{(AX−AB)/(AC−AB)}×100 AX: phospholyration ratio at addition of the compound of the present invention AB: phospholyration ratio at blank AC: phospholyration ratio at only addition of DMSO
(§4) The value of 50% inhibition rate (IC50) for the compound of the present invention was determined from inhibition curve based on inhibition rate at each concentration of the compound of the present invention.
(§5) Research for inhibitory activity to other kinases (such as Lck, Fyn, LynA) was performed in similar procedure above described.

The next data set deals with LynA (Homo sapiens, UniProt P07948). Briefly: Z'-lyte kinase assay (FRET), inhibitory activity to other kinases: LynA. The data set is classed as biochemical. Conditions: selectivity ratio, Biological Example 1 and 2. Here is the method: as §1, §2, §3, §4, §5
For a further data set, the system named is mouse splenocytes. Briefly: B cell activation assay using mouse splenocytes (anti-IgM stimulated CD69 in CD19 positive cells, FACS). The data set is classed as cell-based. Conditions: Splenocyte; anti-mouse IgM stimulation 6 hours; CD69 MFI in CD19 positive cells. Here is the method:
Splenocytes collected from C57B1/6 or Balb/c mice were suspended in RPMI 1640 (Invitrogen), supplemented with 10% fetal bovine serum (FBS). The diluted solution (1 μl) of the compound of the present invention and the suspension of the mouse splenocytes (49 μl) were added to 96-well plate and incubated at 37° C. for 60 min. Cells were stimulated with 10 μl of anti-mouse IgM (Jackson Immunoresearch). Samples were stimulated at 37° C. for 6 hours, 5% CO2 and treated with 10 μl/well Fc block (BD Biosciences) for 15 min on ice in the dark. The diluted solution (10 μl) of antibody (1:2:2 mix of each, Allphycocyanin (APC)-labeled anti-mouse CD3e, Phycoerythrin (PE)-labeled anti-mouse CD19 and Fluorescein Isothiocyanate (FITC) labeled anti-mouse CD69) was added to 96-well collection plate. Samples were transferred to the 96-well collection plate and incubated for 30 min on ice in the dark. Samples were treated with Lyse/Fix solution (1.6 ml/well, BD biosciences) at 37° C. in collection plates and were incubated for at 37° C. for 15 min. Cells were collected by centrifugation at 2000 rpm for 10 min repeatedly, resuspended in stain buffer (BD Biosciences) and analyzed by FACS to determine mean fluorescence intensity (MFI) of CD69 in the CD19 positive cell population. […]

The nature of data set [1]: Pharmacokinetic profile in rats. The data set is classed as in vivo. The settings on record: rat, plasma, fasted male Sprague-Dawley rats. As to the method: Using fasted male Sprague-Dawley rats (250-400 gram; Hilltop Labs), the plasma concentration of the compound of the present invention after intravenous administration at a dose of 1 mg/kg and the plasma concentration after oral gavage administration at a dose of 2 mg/kg were measured. The blood samples (˜0.25 mL) was collected from a rat jugular vein under an unanesthetized condition 1, 5, 15, and 30 minutes, and 1, 2, 4, 8, 12 and 24 hours after intravenous administration, and 5, 15 and 30 minutes, and 1, 1.5, 2, 4, 8, 12 and 24 hours after oral administration. Then the blood samples placed into chilled tubes containing sodium heparin and kept on ice until centrifugation. The samples were centrifuged at a temperature of 4° C. at 13,000 rpm for 5 minutes and the supernatant was collected as plasma. The concentration of the compound in plasma was measured with LC/MS/MS (Acquity HPLC coupled with a quattromicro mass spectrometer, Waters Corp.). From the obtained plasma concentration, an area under the curve (AUC, ng·h/ml), a maximum plasma concentration.(Cmax, μg/mL) and a clearance (CL, mL/hr/kg) were calculated. In addition, Bioavailability (B.A.) of the compound of the present invention was calculated from AUC in oral administration and AUC in intravenous administration.

Setting [2] is: oral 2 mg/kg / i.v. 1 mg/kg study, route of the value not given.

T1 sequence (Q06187 whole entry): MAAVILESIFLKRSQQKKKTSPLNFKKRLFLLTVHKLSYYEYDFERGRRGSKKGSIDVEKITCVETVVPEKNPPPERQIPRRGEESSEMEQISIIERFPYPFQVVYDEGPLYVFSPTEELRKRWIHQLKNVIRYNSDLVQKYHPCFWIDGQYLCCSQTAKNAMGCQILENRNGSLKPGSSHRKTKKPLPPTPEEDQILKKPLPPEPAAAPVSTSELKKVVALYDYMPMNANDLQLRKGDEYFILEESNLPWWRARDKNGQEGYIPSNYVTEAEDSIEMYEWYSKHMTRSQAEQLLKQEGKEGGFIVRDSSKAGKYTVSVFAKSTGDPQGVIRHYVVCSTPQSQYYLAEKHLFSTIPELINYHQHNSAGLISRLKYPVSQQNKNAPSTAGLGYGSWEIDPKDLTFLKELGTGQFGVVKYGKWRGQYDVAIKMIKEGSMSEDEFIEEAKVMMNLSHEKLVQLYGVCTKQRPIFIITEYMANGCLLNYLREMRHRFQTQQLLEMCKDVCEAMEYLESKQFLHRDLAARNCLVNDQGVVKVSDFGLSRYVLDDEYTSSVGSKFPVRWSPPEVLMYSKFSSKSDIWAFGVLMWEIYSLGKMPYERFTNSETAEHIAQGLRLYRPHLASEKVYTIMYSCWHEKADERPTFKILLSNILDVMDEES
Fyn, sequence (P06241 whole entry): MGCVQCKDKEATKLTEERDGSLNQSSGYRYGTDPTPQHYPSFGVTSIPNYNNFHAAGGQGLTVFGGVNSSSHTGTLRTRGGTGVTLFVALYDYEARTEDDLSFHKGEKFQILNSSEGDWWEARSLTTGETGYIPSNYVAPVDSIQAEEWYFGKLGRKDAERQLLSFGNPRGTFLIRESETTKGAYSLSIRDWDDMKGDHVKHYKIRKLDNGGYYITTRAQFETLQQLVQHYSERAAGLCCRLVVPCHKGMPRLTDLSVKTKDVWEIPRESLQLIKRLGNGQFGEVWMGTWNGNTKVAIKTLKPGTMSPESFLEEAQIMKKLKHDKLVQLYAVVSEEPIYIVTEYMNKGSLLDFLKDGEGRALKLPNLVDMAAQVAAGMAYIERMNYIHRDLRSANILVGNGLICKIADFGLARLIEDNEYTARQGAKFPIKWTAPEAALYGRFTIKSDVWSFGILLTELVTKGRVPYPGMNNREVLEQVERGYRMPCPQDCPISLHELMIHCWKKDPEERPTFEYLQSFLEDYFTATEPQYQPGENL
LynA, sequence (P07948 whole entry): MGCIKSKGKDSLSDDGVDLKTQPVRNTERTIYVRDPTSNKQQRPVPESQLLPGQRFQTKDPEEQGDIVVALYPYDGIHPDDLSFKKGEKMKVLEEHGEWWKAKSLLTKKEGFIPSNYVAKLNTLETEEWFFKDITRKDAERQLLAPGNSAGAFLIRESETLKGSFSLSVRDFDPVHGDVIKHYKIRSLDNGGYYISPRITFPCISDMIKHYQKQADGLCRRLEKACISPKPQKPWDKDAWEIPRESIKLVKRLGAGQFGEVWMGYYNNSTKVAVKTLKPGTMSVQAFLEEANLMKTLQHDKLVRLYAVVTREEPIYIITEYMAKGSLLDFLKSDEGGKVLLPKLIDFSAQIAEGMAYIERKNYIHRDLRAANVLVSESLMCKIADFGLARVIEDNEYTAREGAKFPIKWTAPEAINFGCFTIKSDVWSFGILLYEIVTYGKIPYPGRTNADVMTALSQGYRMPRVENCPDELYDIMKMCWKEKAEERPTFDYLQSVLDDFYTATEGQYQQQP
Lck, sequence (P06239 whole entry): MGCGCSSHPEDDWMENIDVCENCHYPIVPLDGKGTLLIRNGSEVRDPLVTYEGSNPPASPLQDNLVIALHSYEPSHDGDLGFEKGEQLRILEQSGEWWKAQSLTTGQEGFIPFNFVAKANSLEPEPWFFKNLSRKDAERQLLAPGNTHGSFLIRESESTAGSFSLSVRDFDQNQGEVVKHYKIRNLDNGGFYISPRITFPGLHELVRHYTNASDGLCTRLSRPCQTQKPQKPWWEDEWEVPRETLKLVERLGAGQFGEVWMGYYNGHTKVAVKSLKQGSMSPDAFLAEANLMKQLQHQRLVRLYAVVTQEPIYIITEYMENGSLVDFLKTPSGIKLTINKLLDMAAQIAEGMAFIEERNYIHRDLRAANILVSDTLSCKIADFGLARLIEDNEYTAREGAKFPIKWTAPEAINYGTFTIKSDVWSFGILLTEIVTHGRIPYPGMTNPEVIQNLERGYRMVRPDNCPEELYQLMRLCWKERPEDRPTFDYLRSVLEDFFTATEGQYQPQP

Regarding `COc1cccc(-c2c(CCCN3CCCC3)c(-c3ccc(Oc4ccccc4)cc3)c3c(N)ncnn23)c1` [Example 16(2), 7-(3-methoxyphenyl)-5-(4-phenoxyphenyl)-6-(3-(pyrrolidin-1-yl)propyl)pyrrolo[2,1-f][1,2,4]triazin-4-amine], on Btk, the IC50 (commonly the concentration that gives 50% inhibition) stood at 65 nM.
`COc1cccc(-c2c(CCCN3CCCC3)c(-c3ccc(Oc4ccc(Cl)c(Cl)c4)c(OC)c3)c3c(N)ncnn23)c1` [Example 16(3), 5-(4-(3,4-dichlorophenoxy)-3-methoxyphenyl)-7-(3-methoxyphenyl)-6-(3-(pyrrolidin-1-yl)propyl)pyrrolo[2,1-f][1,2,4]triazin-4-amine]: the “Lck[IC50]/Btk[IC50]” value at Lck came to 40. For the same molecule, the “Fyn[IC50]/Btk[IC50]” value at Fyn is 917. Besides, the half-maximal inhibitory concentration (IC50) at Btk is 12 nM. In addition, the “LynA[IC50]/Btk[IC50]” value on LynA was found to be 78.
Take `COc1cc(-c2c(C3CCNCC3)c(C3CCCC3)n3ncnc(N)c23)ccc1Oc1ccc(Cl)c(Cl)c1` [Example 25(1), 7-cyclopentyl-5-(4-(3,4-dichlorophenoxy)-3-methoxyphenyl)-6-(piperidin-4-yl)pyrrolo[2,1-f][1,2,4]triazin-4-amine]: on Btk, the half-maximal inhibitory concentration (IC50) worked out at 62 nM.
The same measure, in the same setting: under `COc1cccc(-c2c(CCCN(C)C)c(-c3ccc(Oc4ccccc4)cc3)c3c(N)ncnn23)c1` [Example 16(1), 6-(3-(dimethylamino)propyl)-7-(3-methoxyphenyl)-5-(4-phenoxyphenyl)pyrrolo[2,1-f][1,2,4]triazin-4-amine] stands 5.8 nM; under `CCN(CC)CC(=O)N1CCC(c2c(CCCN3CCCC3)c(-c3ccc(Oc4ccc(Cl)c(Cl)c4)c(OC)c3)c3c(N)ncnn23)CC1` [Example 21, 1-(4-(4-amino-5-(4-(3,4-dichlorophenoxy)-3-methoxyphenyl)-6-(3-(pyrrolidin-1-yl)propyl)pyrrolo[2,1-f][1,2,4]triazin-7-yl)piperidin-1-yl)-2-(diethylamino)ethanone], 16 nM.
For `C=CC(=O)N1CCCC(c2c(Cl)c(-c3ccc(Oc4cccc(Cl)c4)c(OC)c3)c3c(N)ncnn23)C1` (stereo not drawn) [Example 32, 1-(3-(4-amino-6-chloro-5-(4-(3-chlorophenoxy)-3-methoxyphenyl)pyrrolo[2,1-f][1,2,4]triazin-7-yl)piperidin-1-yl)prop-2-en-1-one], the “Lck[IC50]/Btk[IC50]” value at Lck is 161. Besides, the “Fyn[IC50]/Btk[IC50]” value on Fyn turned out to be 7222. Moreover, the figures for the IC50 at Btk and in the data set with mouse splenocytes were 2 nM and 130 nM, respectively. This molecule also showed a clearance in data set [1] (intravenous, oral 2 mg/kg / i.v. 1 mg/kg study) of 17.8 mL/day/kg. In data set [1] (from AUC oral 2 mg/kg and AUC i.v. 1 mg/kg, read-out: B.A. (Bioavailability)), the bioavailability (as a rule, the share of a dose that reaches the circulation, judged against a reference dose that is usually intravenous) is 24%. In addition, the AUC (in general, concentration integrated over time) in data set [1] (setting [2]) came out at 652 ng·h/mL. Besides, in data set [1] (setting [2]), the concentration peaked (Cmax) at 227 ng/mL. In addition, the “LynA[IC50]/Btk[IC50]” value at LynA stood at 1389.
In the case of `C=CC(=O)N1CCCC(c2c(Cl)c(-c3ccc(Oc4ccc(Cl)c(Cl)c4)c(OC)c3)c3c(N)ncnn23)C1` (stereo not drawn) [Example 32(1), 1-(3-(4-amino-6-chloro-5-(4-(3,4-dichlorophenoxy)-3-methoxyphenyl)pyrrolo[2,1-f][1,2,4]triazin-7-yl)piperidin-1-yl)prop-2-en-1-one], the “Fyn[IC50]/Btk[IC50]” value on Fyn was more than 10000. In addition, the half-inhibitory concentration (IC50) at Btk was 2 nM. At LynA, the “LynA[IC50]/Btk[IC50]” value is reported as 10000.
As to `CCN(CC)CC(=O)N1CCC(c2c(CCCN3CCCC3)c(-c3ccc(Oc4cccc(Cl)c4)c(OC)c3)c3c(N)ncnn23)CC1` [Example 21(1), 1-(4-(4-amino-5-(4-(3-chlorophenoxy)-3-methoxyphenyl)-6-(3-(pyrrolidin-1-yl)propyl)pyrrolo[2,1-f][1,2,4]triazin-7-yl)piperidin-1-yl)-2-(diethylamino)ethanone], at Btk, the IC50 amounted to 22 nM.
